According to PMC11054487, “Species-Specific Unbound Fraction Differences in Highly Bound PFAS: A Comparative Study across Human, Rat, and Mouse Plasma and Albumin” (Toxics, 2024):

Experiments:
rat serum albumin (RSA) = rat serum albumin (RSA) (Rattus norvegicus, UniProt P02770); assay: Presaturation equilibrium dialysis, fraction unbound in rat serum albumin solution; details: for fraction unbound at 18 h, 5 µM: rat
Experimental: (§1) The equilibrium dialysis device (EQD) HTD96 (Gales Ferry, CT, USA) was assembled according to manufacturer instructions. DPBS buffer solutions were prepared by adding PFAS with a concentration of either approximately five-fold of the estimated fu values based on initial available data or assumed to be 0.001 if no data was available. The dialysis apparatus and membranes assembled were pre-saturated (250 µL) three times in total with PFAS spiked DPBS buffer solution; twice for 1 h followed by a final 18-h pre-saturation. This same solution was used on the receiver side of the EQD. […] This 4% albumin was used in the albumin binding study to recapitulate plasma concentration, as human albumin concentration in plasma is 3.5–4.5 g/dL (530–680 µM). The matrix was diluted five-fold using DPBS for PFAS that had preliminary fu values lower than 0.01. Dimethylsulfoxide (DMSO) stock solutions of test PFAS were prepared at 500 μM and added to species-specific plasma or 4% albumin to a final concentration of 5 μM with 1% DMSO. Next, 150 μL of PFAS spiked DPBS was added to the receiver side of the membrane and 150 μL of compound spiked matrix was added to the donor side. […] Each PFAS:matrix combination was assessed in quadruplicate. For sample collection, 15 μL of buffer and 45 μL of matrix were sampled from the dialysis device into a 96-deep well plate and matrix-matched with either blank buffer or matrix. The samples were then quenched with 200 μL of cold acetonitrile containing internal standard (tolbutamide 30 nM and carbamazepine 12 nM) to precipitate proteins. Next, the plates were sealed and placed on a vortex mixer for 1 min, and then centrifuged (Beckman Coulter, Fullerton, CA, USA) at 3000 rpm for 5 min at room temperature. Lastly, the supernatant was transferred to a new 96-well plate, fully dried down under nitrogen gas, reconstituted with 200 µL of 50/50 (v/v) HPLC grade water/acetonitrile, and vortexed for 1 min prior to LC-MS/MS analysis.
(§2) LC-MS/MS analyses were performed on a SCIEX Triple Quad 5500 mass spectrometer (SCIEX, Concord, ON, Canada) equipped with Turbo Ion Spray interface. […] All instruments were controlled and synchronized by SCIEX Analyst software (version 1.6.3). Mobile phases compositions were 0.1% formic acid in water (mobile phase A) and 0.1% formic acid in acetonitrile (mobile phase B). […] The column was equilibrated at 5% B for 0.5 min before injecting samples. The total run time for each injection was 6 min. The chromatographic separation was conducted on a Phenomenex Kinetex C18 100Å 30 × 2.1 mm column (Torrance, CA, USA) with a flow rate of 0.5 mL/min. The injection volume for each sample was 5 µL. Multiple-reaction-monitoring (MRM) mode using specific precursor/product ion transitions was used for quantification. Data processing was performed using SCIEX Analyst software (version 1.6.3).
(§3) The calculations for fu are shown in Equations (1) and (2), where D is the dilution factor and fu,d is the diluted fu shown below. All calculations are based on area ratios (analyte peak area/IS peak area), and MS responses used for calculations were all in linear ranges. […] (1) Diluted fud=Receiver Area Ratio/Donor Area Ratio (2) Undiluted fu=1/D/1/fu,d−1+1/D
(§4) Albumin concentrations for rodents have been reported in the literature as rat: 3.0 g/dL; CD-1 mice: 2.7 g/dL; C57BL/6 mice: 2.9 g/dL [53].

[1] = target: mouse serum albumin (MSA) (Mus musculus, UniProt P07724); assay: Presaturation equilibrium dialysis, fraction unbound in mouse serum albumin solution; details: for fraction unbound at 18 h, 5 µM: mouse
Experimental: as §1, §2, §3, §4

[2] = Presaturation equilibrium dialysis, fraction unbound in C57BL/6 mouse plasma; type: in vitro ADME; parameters: fraction unbound at 18 h: dose or concentration left out as unconfirmed; details: 37 °C, value (CV), read-out: Fraction Unbound (fu) and Coefficient of Variance (CV), C57BL/6 Plasma; for fraction unbound at 18 h, 5 µM: 5 μM PFAS
Experimental: (§5) Each PFAS:matrix combination was assessed in quadruplicate.
(§6) The injection volume for each sample was 5 µL.

[3] = Presaturation equilibrium dialysis, fraction unbound in rat plasma; type: in vitro ADME; parameters: fraction unbound at 18 h: dose or concentration left out as unconfirmed; details: Wistar-Han rat plasma, 37 °C, value (CV), read-out: Fraction Unbound (fu) and Coefficient of Variance (CV), Rat Plasma; for fraction unbound at 18 h, 5 µM: 5 μM PFAS
Experimental: as §5, §6

[4] = Presaturation equilibrium dialysis, fraction unbound in human plasma; type: in vitro ADME; parameters: fraction unbound at 18 h: dose or concentration left out as unconfirmed; details: human, 37 °C, value (CV), read-out: Fraction Unbound (fu) and Coefficient of Variance (CV), Human Plasma; for fraction unbound at 18 h, 5 µM: 5 μM PFAS
Experimental: as §5, §6

[5] = Presaturation equilibrium dialysis, fraction unbound in CD-1 mouse plasma; type: in vitro ADME; parameters: fraction unbound at 18 h: dose or concentration left out as unconfirmed; details: 37 °C, value (CV), read-out: Fraction Unbound (fu) and Coefficient of Variance (CV), CD-1 Plasma; for fraction unbound at 18 h, 5 µM: 5 μM PFAS
Experimental: as §5, §6

rat plasma = system: rat plasma; parameters: method as in PMID 12499116; details: ultrafiltration method; cited from earlier work
mouse (C57BL/6) plasma = assay: Presaturation equilibrium dialysis, fraction unbound in C57BL/6 mouse plasma; type: in vitro ADME; parameters: fraction unbound at 18 h: dose or concentration left out as unconfirmed; details: 5 μM PFAS, 18 h, 37 °C, value (CV)
Experimental: as §5, §6

rat (Wistar-Han) plasma = assay: Presaturation equilibrium dialysis, fraction unbound in rat plasma; type: in vitro ADME; parameters: fraction unbound at 18 h: dose or concentration left out as unconfirmed; details: 5 μM PFAS, 18 h, 37 °C, value (CV)
Experimental: as §5, §6

human plasma = assay: Presaturation equilibrium dialysis, fraction unbound in human plasma; type: in vitro ADME; parameters: fraction unbound at 18 h: dose or concentration left out as unconfirmed; details: 5 μM PFAS, 18 h, 37 °C, value (CV)
Experimental: as §5, §6

mouse (CD-1) plasma = assay: Presaturation equilibrium dialysis, fraction unbound in CD-1 mouse plasma; type: in vitro ADME; parameters: fraction unbound at 18 h: dose or concentration left out as unconfirmed; details: 5 μM PFAS, 18 h, 37 °C, value (CV)
Experimental: as §5, §6

[6] = target: T1, human serum albumin (HSA) (Homo sapiens, UniProt P02768); assay: Presaturation equilibrium dialysis, fraction unbound in human serum albumin solution; type: in vitro ADME; details: 4% human serum albumin in PBS, 5 μM PFAS, value (CV); for fraction unbound at 18 h, 5 µM: 4% human serum albumin (HSA) solution, read-out: Fraction Unbound (fu) and Coefficient of Variance (CV), HSA
T1 construct: purchased Sigma-Aldrich
Experimental: as §5, §6

[7] = humans; cited from earlier work
[8] = isolated protein, Fraction unbound (fu) and %CV, RSA 3%, 3% rat serum albumin, value (%CV)
[9] = isolated protein, Fraction unbound (fu) and %CV, MSA 3%, 3% mouse serum albumin, value (%CV)
[10] = 3% rat serum albumin, value (%CV)
[11] = 4% rat serum albumin in PBS, 5 μM PFAS, value (CV)
[12] = 3% mouse serum albumin, value (%CV)
[13] = 4% mouse serum albumin in PBS, 5 μM PFAS, value (CV)
[14] = 4% rat serum albumin (RSA) solution, Fraction Unbound (fu) and Coefficient of Variance (CV), RSA, 4% rat serum albumin in PBS, 5 μM PFAS, value (CV)
[15] = 4% mouse serum albumin (MSA) solution, Fraction Unbound (fu) and Coefficient of Variance (CV), MSA, 4% mouse serum albumin in PBS, 5 μM PFAS, value (CV)

Sequence of mouse serum albumin (MSA) (P07724 25-608): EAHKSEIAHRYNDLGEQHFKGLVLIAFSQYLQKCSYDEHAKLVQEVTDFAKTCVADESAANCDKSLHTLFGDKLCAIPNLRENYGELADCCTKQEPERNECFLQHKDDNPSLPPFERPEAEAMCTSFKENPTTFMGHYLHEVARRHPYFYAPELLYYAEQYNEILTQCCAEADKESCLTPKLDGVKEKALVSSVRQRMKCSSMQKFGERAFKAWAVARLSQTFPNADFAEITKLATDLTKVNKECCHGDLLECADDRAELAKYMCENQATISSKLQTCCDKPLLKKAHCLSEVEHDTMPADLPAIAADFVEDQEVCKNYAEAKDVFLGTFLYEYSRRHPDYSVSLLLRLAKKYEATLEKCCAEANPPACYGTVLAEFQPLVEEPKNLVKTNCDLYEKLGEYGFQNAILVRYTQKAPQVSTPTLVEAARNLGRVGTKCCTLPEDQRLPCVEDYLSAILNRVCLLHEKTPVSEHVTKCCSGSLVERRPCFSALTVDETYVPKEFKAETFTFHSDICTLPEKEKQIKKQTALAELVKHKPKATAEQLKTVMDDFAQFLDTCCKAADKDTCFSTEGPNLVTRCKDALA
T1 sequence (P02768 25-609): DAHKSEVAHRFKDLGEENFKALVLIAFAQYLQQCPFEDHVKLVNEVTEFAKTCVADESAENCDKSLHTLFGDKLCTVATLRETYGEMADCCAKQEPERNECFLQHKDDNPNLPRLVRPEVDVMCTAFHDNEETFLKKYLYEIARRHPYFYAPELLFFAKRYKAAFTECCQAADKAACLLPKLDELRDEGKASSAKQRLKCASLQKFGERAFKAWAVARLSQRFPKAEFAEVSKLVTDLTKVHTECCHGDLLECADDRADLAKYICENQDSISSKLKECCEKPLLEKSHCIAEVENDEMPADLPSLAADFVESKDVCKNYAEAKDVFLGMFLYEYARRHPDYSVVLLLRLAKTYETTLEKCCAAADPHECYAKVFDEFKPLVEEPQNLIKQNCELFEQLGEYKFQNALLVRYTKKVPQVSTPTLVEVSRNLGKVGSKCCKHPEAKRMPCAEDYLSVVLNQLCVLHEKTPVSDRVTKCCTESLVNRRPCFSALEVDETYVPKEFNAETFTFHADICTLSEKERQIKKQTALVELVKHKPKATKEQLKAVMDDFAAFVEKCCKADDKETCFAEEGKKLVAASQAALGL
Sequence of rat serum albumin (RSA) (P02770 25-608): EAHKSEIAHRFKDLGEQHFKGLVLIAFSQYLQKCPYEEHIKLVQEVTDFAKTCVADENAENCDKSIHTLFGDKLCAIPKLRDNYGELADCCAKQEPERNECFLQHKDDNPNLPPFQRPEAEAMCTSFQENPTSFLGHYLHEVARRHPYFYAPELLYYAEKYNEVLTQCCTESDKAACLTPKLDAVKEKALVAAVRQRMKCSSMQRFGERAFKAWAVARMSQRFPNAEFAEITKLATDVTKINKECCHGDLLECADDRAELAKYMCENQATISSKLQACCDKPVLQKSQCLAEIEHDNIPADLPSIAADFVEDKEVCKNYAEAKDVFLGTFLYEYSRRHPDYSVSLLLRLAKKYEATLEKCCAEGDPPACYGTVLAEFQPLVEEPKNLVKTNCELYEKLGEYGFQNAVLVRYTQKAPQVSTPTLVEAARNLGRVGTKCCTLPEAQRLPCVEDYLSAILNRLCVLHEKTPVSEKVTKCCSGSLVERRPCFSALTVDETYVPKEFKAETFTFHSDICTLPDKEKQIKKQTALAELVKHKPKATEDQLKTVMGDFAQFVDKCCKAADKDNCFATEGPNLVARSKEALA

Row | SMILES | fraction unbound at 18 h, 5 µM (rat serum albumin (RSA); [8]) | fraction unbound at 18 h, 5 µM [1, 9] | bound (rat plasma) | Fraction unbound (fu) and %CV, RSA 3% (rat serum albumin (RSA); [10]) | Fraction Unbound (fu) and Coefficient of Variance (CV), RSA (rat serum albumin (RSA); [11]) | Fraction unbound (fu) and %CV, MSA 3% [1, 12] | Fraction Unbound (fu) and Coefficient of Variance (CV), MSA [1, 13] | Fraction Unbound (fu) and Coefficient of Variance (CV), C57BL/6 Plasma (mouse (C57BL/6) plasma) | Fraction Unbound (fu) and Coefficient of Variance (CV), Rat Plasma (rat (Wistar-Han) plasma) | Fraction Unbound (fu) and Coefficient of Variance (CV), Human Plasma (human plasma) | Fraction Unbound (fu) and Coefficient of Variance (CV), CD-1 Plasma (mouse (CD-1) plasma) | fraction unbound at 18 h, 5 µM (rat serum albumin (RSA); [14]) | fraction unbound at 18 h, 5 µM [1, 15] | fraction unbound at 18 h, 5 µM [2] | fraction unbound at 18 h, 5 µM [3] | fraction unbound at 18 h, 5 µM [4] | fraction unbound at 18 h, 5 µM [5] | fraction unbound at 18 h, 5 µM [6] | also measured
1 | O=C(O)C(F)(F)C(F)(F)C(F)(F)C(F)(F)C(F)(F)C(F)(F)F [PFHpA, perfluoroheptanoic acid] | 0.00257 | 0.00954 | greater than 98% |  |  |  |  |  |  |  |  |  |  |  |  |  |  |  | fraction unbound at 18 h, 5 µM (rat serum albumin (RSA); isolated protein, Fraction Unbound (fu) and Coefficient of Variance (CV), RSA, 4% rat serum albumin in PBS, 5 μM PFAS, value (CV)): 0.00313; fraction unbound at 18 h, 5 µM ([1]; isolated protein, Fraction Unbound (fu) and Coefficient of Variance (CV), MSA, 4% mouse serum albumin in PBS, 5 μM PFAS, value (CV)): 0.0118; fraction unbound at 18 h [2]: 0.0323; fraction unbound at 18 h [3]: 0.00454; fraction unbound at 18 h ([4]; plasma): 0.00445; fraction unbound at 18 h [5]: 0.0331
2 | O=C(O)C(F)(F)C(F)(F)C(F)(F)C(F)(F)C(F)(F)C(F)(F)C(F)(F)C(F)(F)C(F)(F)F [PFDA, perfluorodecanoic acid] |  |  | greater than 98% | 0.000494 (19%) | 0.000608(19%) | 0.000839 (26%) | 0.00102(26%) | 0.00127(9%) | 0.001(9%) | 0.000618(9%) | 0.0015(4%) |  |  |  |  |  |  |  | Fraction Unbound (fu) and Coefficient of Variance (CV), HSA [6]: 0.000584(8%)
3 | O=C(O)C(F)(F)C(F)(F)C(F)(F)C(F)(F)C(F)(F)C(F)(F)C(F)(F)F [PFOA, perfluorooctanoic acid] | 0.00157 | 0.00411 | greater than 98% |  |  |  |  |  |  |  |  | 0.00196 | 0.00513 | 0.0142 | 0.00298 | 0.0025 | 0.0152 | 0.00285 | t1/2 [7]: 2.3–5.4 years
4 | O=C(O)C(F)(F)C(F)(F)C(F)(F)C(F)(F)C(F)(F)C(F)(F)C(F)(F)C(F)(F)C(F)(F)C(F)(F)C(F)(F)F [PFDoDA, perfluorododecanoic acid] | 7.77e-05 | 0.000175 |  |  |  |  |  |  |  |  |  | 9.64e-05 | 0.000217 | 0.000205 | 7.96e-05 | 0.000105 | 0.000222 | 0.000157 | 
5 | O=C(O)C(F)(F)C(F)(F)C(F)(F)C(F)(F)C(F)(F)C(F)(F)C(F)(F)C(F)(F)F [PFNA, perfluorononanoic acid] |  |  | greater than 98% | 0.00217 (2%) | 0.00271(2%) | 0.00292 (6%) | 0.00364(6%) | 0.00438(22%) | 0.0021(6%) | 0.00187(3%) | 0.00455(6%) |  |  |  |  |  |  |  | 
